From US10844013B2, “Phenyl amino piperidine mTORC inhibitors and uses thereof” (Navitor Pharmaceuticals, Inc., priority 2016, dated 2020)
Where a name gives a salt, the structure may show the parent alone.

Columns and labels:
[1] = tested on: pS6K1 (p-p70 S6 Kinase (Thr389)) in MCF-7 cells; test: AlphaLISA Ultra pS6K1 assay; assay type: cell-based; details: Homo sapiens, MCF7, 2 h, 2 hours compound incubation
Procedure: Example 155: AlphaLISA Ultra pS6K1 assay
(§1) Assay Protocol: • 1. Seed MCF-7 cells in Corning 3701 plate and incubate for 20˜24 hour. 12,000˜16,000 cells will be seeded in 36 μL medium per well. • 2. Change the culture medium with fresh medium and incubate for another 2 hours. • 3. Add 12 μL (4×) compounds into the cell plate by HAMILTON. Final DMSO concentration is 0.5%. Incubate for 2 hours. • 4. Aspirate 38 μL by HAMILTON, 10 μL rest per well. • 5. Add 10 μL 2× lysis buffer using HAMILTON; total volume in wells is 20 μL. Allow cells to shake for 30 min. Cover plate by plastic foil and store plate at −80° C. up to analysis. • 6. Thaw cell lysate at RT and transfer 10 ul lysate to assay plate (Optiplate-384). • 7. Add 5 ul acceptor beads into assay plate and incubation for 2 hours • 8. Add 5 ul donor beads and incubation for 2 hours • 9. Count the plate by EnSpire Multimode Plate Reader

[2] = tested on: pAKT (p-Akt 1/2/3 (Ser473)) in MCF-7 cells; test: AlphaLISA Ultra pAKT assay; assay type: cell-based; details: Homo sapiens, MCF7, 2 hours compound incubation
Procedure: Example 156: AlphaLISA Ultra pAKT Assay
as §1, with “1.” for “1. Seed”, “for 20-24” for “for 20˜24”, “hour. 16,000-20,000” for “hour. 12,000˜16,000”, “38 j L” for “38 μL”

Row | IC50 [1] | IC50 [2] | Structure (SMILES)
1 | 1000 to 3000 nM | > 10000 nM | Cc1cc(C)c(C(=O)N2CCN(c3cccc(F)c3S(=O)(=O)N=C(N(C)C)N(C)C)CC2)cc1NC1CCN(c2ccccc2C#N)CC1 [I-19, 2-{2-[4-(5-{[1-(2-cyanophenyl)piperidin-4-yl]amino}-2,4-dimethylbenzoyl)piperazin-1-yl]-6-fluorobenzenesulfonyl}-1,1,3,3-tetramethylguanidine]
2 | 1000 to 3000 nM | > 10000 nM | Cc1cc(C)c(C(=O)N2CCN(c3ccccc3)[C@H](C(C)(C)O)C2)cc1NC1CCN(c2ccccc2C#N)CC1 [I-20]
3 | 1000 to 3000 nM | > 10000 nM | CCCN(c1cc(C(=O)N2CCN(c3ccccc3S(N)(=O)=O)CC2)c(C)cc1C)C1CCN(c2ccccc2C#N)CC1 [I-23, 2-(4-(5-((1-(2-Cyanophenyl)piperidin-4-yl)(propyl)amino)-2,4-dimethylbenzoyl)piperazin-1-yl)benzenesulfonamide]
4 | 1000 to 3000 nM | > 10000 nM | Cc1cc(C)c(N(CC(N)=O)C2CCN(c3ccccc3C#N)CC2)cc1C(=O)N1CCN(c2ccccc2S(N)(=O)=O)CC1 [I-27, 2-((1-(2-Cyanophenyl)piperidin-4-yl)(2,4-dimethyl-5-(4-(2-sulfamoylphenyl)piperazine-1-carbonyl)phenyl)amino)acetamide]
5 | 10 to 1000 nM | > 10000 nM | Cc1cc(C)c(C(=O)N2CCN(c3ccccc3C(N)=O)CC2)cc1NC1CCN(c2ccccc2C#N)CC1 [I-29]
6 | 10 to 1000 nM | > 10000 nM | Cc1cc(C)c(C(=O)N2CCN(c3ccccn3)[C@@H](CO)C2)cc1NC1CCN(c2ccccc2C#N)CC1 [I-30]
7 | 10 to 1000 nM | > 10000 nM | Cc1cc(C)c(C(=O)N2CCN(c3ccccc3)C(C(N)=O)C2)cc1NC1CCN(c2ccccc2C#N)CC1 (stereo not shown) [I-31, 4-(5-{[1-(2-cyanophenyl)piperidin-4-yl]amino}-2,4-dimethylbenzoyl)-1-phenylpiperazine-2-carboxamide]
8 | 1000 to 3000 nM | > 10000 nM | Cc1cc(C)c(C(=O)N2CCN(c3ccccn3)[C@@H](C)C2)cc1NC1CCN(c2ccccc2C#N)CC1 [I-34, 2-[4-[2,4-Dimethyl-5-[(3S)-3-methyl-4-(2-pyridyl)piperazine-1-carbonyl]anilino]-1-piperidyl]benzonitrile]

The remaining lines, values behind:

Row | Structure (SMILES) | IC50 [1] | IC50 [2]
9 | Cc1cc(C)c(C(=O)N2CCN(c3ccccc3C#N)CC2)cc1NC1CCN(c2cccc(Cl)c2)CC1 [I-17, 2-(4-(5-(1-(3-Chlorophenyl)piperidin-4-ylamino)-2,4-dimethylbenzoyl)piperazin-1-yl)benzonitrile] | 1000 to 3000 nM | > 10000 nM
10 | Cc1cc(C)c(C(=O)N2CCN(c3ccccc3C#N)CC2)cc1NC1CCN(c2cccc(C#N)c2)CC1 [I-18, 2-(4-(5-(1-(3-Cyanophenyl)piperidin-4-ylamino)-2,4-dimethylbenzoyl)piperazin-1-yl)benzonitrile trifluoroacetate] | 1000 to 3000 nM | > 10000 nM
11 | Cc1cc(C)c(C(=O)N2CCN(c3ccccc3)[C@@H](C(C)(C)O)C2)cc1NC1CCN(c2ccccc2C#N)CC1 [I-21] | 3000 to 5000 nM | > 10000 nM
12 | Cc1cc(C)c(C(=O)N2CCN(c3ncccc3C(N)=O)CC2)cc1NC1CCN(c2ccccc2C#N)CC1 [I-28] | 1000 to 3000 nM | > 10000 nM
13 | CNC(=O)C1CN(C(=O)c2cc(NC3CCN(c4ccccc4C#N)CC3)c(C)cc2C)CCN1c1ccccc1 (stereo not shown) [I-32, 4-(5-{[1-(2-cyanophenyl)piperidin-4-yl]amino}-2,4-dimethylbenzoyl)-N-methyl-1-phenylpiperazine-2-carboxamide] | 1000 to 3000 nM | > 10000 nM
14 | Cc1cc(C)c(C(=O)N2CCN(c3ccccc3)[C@@H](C)C2)cc1NC1CCN(c2ccccc2C#N)CC1 [I-33, (S)-2-(4-(2,4-Dimethyl-5-(3-methyl-4-phenylpiperazine-1-carbonyl)phenylamino)piperidin-1-yl)benzonitrile] | 5000 to 10000 nM | > 10000 nM
